Source: patent publication EP4491649A1, “DUAL CURABLE OLIGOMERS” (ARKEMA FRANCE, priority 2023, dated 2025)

What was measured:
Type in all cases: physicochemical
[1] = Refractive index (RX-7000 α, ATAGO)
Protocol: The refractive index of the oligomers was measured using a RX-7000 α from AT AGO at a temperature of 25°C.

[2] = Viscosity of the oligomers (Brookfield RVDV-II+ Pro, #28 spindle); conditions: 20 rpm
Protocol: The viscosity of the oligomers was measured using a Brookfield RVDV-II+ Pro instrument at a temperature of 60°C using a #28 spindle and a rotational speed of 20 rpm. Moreover, the viscosity of the oligomers was measured with a Brookfield RVDV-II+ Pro instrument at a temperature of 25°C using a #28 spindle and a rotational speed of 10 rpm.

[3] = Mechanical performance of cured compositions (tensile strength, modulus, elongation at break, ASTM D638)
Protocol: These mechanical properties were measured in accordance with ASTM D638.
The mechanical performance tests were performed on compositions comprising the oligomer to be tested mixed with SR506, photoinitiators and/or curing agents, as detailed in Tables 4, 5 and 6 below.
Tests UV + Thermal cure: 80 wt.% of oligomers were mixed with 20 wt. % of SR506. To this mixture were added 3 wt.% of TPO and 1 wt.% of 2E4MZ (based on the total weight of oligomers + SR506).
Tests UV cure: 80 wt.% of oligomers were mixed with 20 wt. % of SR506. To this mixture was added 3 wt.% of TPO (based on the total weight of oligomers + SR506).
Tests Thermal cure: 80 wt.% of oligomers were mixed with 20 wt.% of SR506. To this mixture was added 1 wt.% of 2E4MZ (based on the total weight of oligomers + SR506).

[4] = Storage stability (thermal test, viscosity before/after 48 hours at 65°C, alone or mixed with ADH)
Protocol: The storage stability tests were performed by placing the oligomer to be tested, alone or mixed with ADH (as a curing agent), at 65°C for 48 hours (thermal test), and measuring their viscosity (cps@60C).

[5] = Epoxy Equivalent Weight (EEW), ASTM D1763-1981
Protocol: The EEW was measured in accordance with ASTM D1763-1981.

[6] = Thermal Cure, 80 wt.% oligomer + 20 wt.% SR506, then 1 wt.% 2E4MZ
[7] = UV + Thermal Cure, 80 wt.% oligomer + 20 wt.% SR506, then 3 wt.% TPO + 1 wt.% 2E4MZ
[8] = UV Cure, 80 wt.% oligomer + 20 wt.% SR506, then 3 wt.% TPO

Structure (SMILES): C=CC(=O)OCC(O)COc1ccc(C(C)(C)c2ccc(OCC3CO3)cc2)cc1 (stereo not drawn) [Reference]
- Refractive Index (25°C) [1]: 1.5633
- Viscosity (60°C) [2]: 2390 mPa.s
- Viscosity (60°C) ([2]; listed as Comparative oligomer): around 2390 mPa.s
- Elongation at break (%) [3, 6]: 2.095%
- Tensile modulus [3, 6]: 2,037
- Tensile strength (Mpa) [3, 6]: 43.33 Mpa
- Elongation at break (%) [3, 7]: 1.86%
- Tensile modulus [3, 7]: 4027
- Tensile strength (Mpa) [3, 7]: 73.39 Mpa
- Elongation at break (%) [3, 8]: 2.32%
- Tensile modulus [3, 8]: 2722
- Tensile strength (Mpa) [3, 8]: 62.9 Mpa
- viscosity change after storage ([4]; 65°C for 48h, not mixed with ADH): no significant viscosity change
- Viscosity (cps@60C) After storage 48h, 65°C ([4]; after storage 48h at 65°C, measured at 60C): 2,450 cps
- Viscosity (cps@60C) Initial ([4]; initial, measured at 60C): 2,390 cps
- state of composition after storage ([4]; mixed with 20 wt.% ADH, 48h at 65°C): becomes gelled
- EEW ([5]; Table 2): 1020 g/ep
- EEW ([5]; synthesis text): 1020 g/eq
